According to ChEMBL document CHEMBL5696442, “Discovery of type II inhibitors of TGFβ-activated kinase 1 (TAK1) and mitogen-activated protein kinase kinase kinase kinase 2 (MAP4K2)” (J Med Chem, 2015):
Calls of active or inactive are those of the source. The calls are words filed in the database; no cut-off is given here.

Columns and labels:
[1] = target: Dual specificity mitogen-activated protein kinase kinase 1 (Homo sapiens) (UniProt Q02750); assay: Inhibition of MAP2K1 Lys2 labeling site harbouring DVKPSNILVNSR in human Huh-7 cell lysate at 1 uM by KiNativ Profiling analysis relative to control; assay type: subcellular
[2] = Inhibition of CASK Lys1 labeling site in human Huh-7 cells at 1 uM by KiNativ Profiling analysis relative to control
[3] = target: Microtubule-associated serine/threonine-protein kinase 2 (Homo sapiens) (UniProt Q6P0Q8); assay: Inhibition of MAST2 Lys2 labeling site harbouring DLKPDNLLVTSMGHIK in human Huh-7 cells at 1 uM by KiNativ Profiling analysis relative to control; assay type: cell-based
[4] = test system: Epidermal growth factor receptor (Homo sapiens), P00533 [G719C]; assay: Inhibition of EGFR G719C mutant (unknown origin) at 10 uM by Ambit Kinomescan binding assay relative to control
[5] = target: Tyrosine-protein kinase JAK1 (Homo sapiens) (UniProt P23458); assay: Inhibition of JAK1 domain2 Lys1 labeling site in human A-375 cells at 0.5 uM by KiNativ Profiling analysis relative to control; assay type: cell-based
[6] = test system: MEF; assay: Inhibition of IL-1alpha induced p105 phosphorylation level in mouse MEF cells preincubated for 1 hr followed by IL-1 alpha stimulation and measured after 30 mins by Western blot analysis; assay type: functional, cell-based; settings: dose 0.01-10 µM
[7] = target: Myosin light chain kinase, smooth muscle (Homo sapiens) (UniProt Q15746); assay: Inhibition of smMLCK K1 labeling site in human Huh-7 cells at 10 uM by KiNativ Profiling analysis relative to control; assay type: cell-based
[8] = Inhibition of MLK1/4 K2 labeling site in human Huh-7 cells at 10 uM by KiNativ Profiling analysis relative to control; settings: condition cancer
[9] = target: LIM domain kinase 2 (Homo sapiens) (UniProt P53671); assay: Inhibition of LIMK2 (unknown origin) at 10 uM by Ambit Kinomescan binding assay
[10] = target: RPS6KA1/RPS6KA2/RPS6KA3 (Homo sapiens) (UniProt P51812+Q15349+Q15418); assay: Inhibition of RSK1/2/3 Domain 1 K2 labeling site harbouring DLKPENILLDEEGHIKLTDFGLSK in human Huh-7 cells at 10 uM by KiNativ Profiling analysis relative to control; assay type: cell-based
[11] = target: Tyrosine-protein kinase Lyn (Homo sapiens, UniProt P07948); assay: Inhibition of LYN (unknown origin) at 1 uM by Ambit Kinomescan binding assay relative to control; values are per cent of control
[12] = target: Phosphatidylinositol 3-kinase C2 domain-containing subunit gamma (Homo sapiens) (UniProt O75747); assay: Inhibition of PIK3C2G (unknown origin) at 1 uM by Ambit Kinomescan binding assay relative to control; values are per cent of control
[13] = target: Ephrin type-A receptor 8 (Homo sapiens) (UniProt P29322); assay: Inhibition of EPHA8 (unknown origin) at 1 uM by Ambit Kinomescan binding assay relative to control; values are per cent of control
[14] = target: Serine/threonine-protein kinase Chk2 (Homo sapiens) (UniProt O96017); assay: Inhibition of CHK2 Lys1 labeling site in human A-375 cells at 0.5 uM by KiNativ Profiling analysis relative to control; assay type: cell-based
[15] = target: Death-associated protein kinase 1 (Homo sapiens) (UniProt P53355); assay: Inhibition of DAPK1 (unknown origin) at 1 uM by Ambit Kinomescan binding assay relative to control; values are per cent of control
[16] = target: T1, Serine/threonine-protein kinase STK11 (Homo sapiens) (UniProt Q15831); assay: Inhibition of LKB1 (unknown origin) at 1 uM by Ambit Kinomescan binding assay relative to control; values are per cent of control
T1 sequence (whole entry): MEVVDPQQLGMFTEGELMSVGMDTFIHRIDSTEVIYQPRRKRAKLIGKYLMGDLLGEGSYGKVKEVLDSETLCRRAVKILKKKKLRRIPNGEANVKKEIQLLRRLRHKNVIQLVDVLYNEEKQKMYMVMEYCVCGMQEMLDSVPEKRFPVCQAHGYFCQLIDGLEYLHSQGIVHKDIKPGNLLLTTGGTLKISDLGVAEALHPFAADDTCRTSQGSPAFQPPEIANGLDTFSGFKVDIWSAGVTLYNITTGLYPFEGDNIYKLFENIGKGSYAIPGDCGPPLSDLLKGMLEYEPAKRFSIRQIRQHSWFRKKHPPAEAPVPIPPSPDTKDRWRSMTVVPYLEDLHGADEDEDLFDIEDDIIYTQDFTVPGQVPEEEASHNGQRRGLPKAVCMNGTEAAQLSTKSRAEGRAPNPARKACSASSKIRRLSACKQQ

[17] = test system: Epidermal growth factor receptor (Homo sapiens), P00533 [L858R,T790M]; assay: Inhibition of EGFR L858R/T790M mutant (unknown origin) at 1 uM by Ambit Kinomescan binding assay relative to control
[18] = target: T2, Serine/threonine-protein kinase 3 (Homo sapiens) (UniProt Q13188); assay: Inhibition of MST2 (unknown origin) at 1 uM by Ambit Kinomescan binding assay relative to control
T2 sequence (whole entry): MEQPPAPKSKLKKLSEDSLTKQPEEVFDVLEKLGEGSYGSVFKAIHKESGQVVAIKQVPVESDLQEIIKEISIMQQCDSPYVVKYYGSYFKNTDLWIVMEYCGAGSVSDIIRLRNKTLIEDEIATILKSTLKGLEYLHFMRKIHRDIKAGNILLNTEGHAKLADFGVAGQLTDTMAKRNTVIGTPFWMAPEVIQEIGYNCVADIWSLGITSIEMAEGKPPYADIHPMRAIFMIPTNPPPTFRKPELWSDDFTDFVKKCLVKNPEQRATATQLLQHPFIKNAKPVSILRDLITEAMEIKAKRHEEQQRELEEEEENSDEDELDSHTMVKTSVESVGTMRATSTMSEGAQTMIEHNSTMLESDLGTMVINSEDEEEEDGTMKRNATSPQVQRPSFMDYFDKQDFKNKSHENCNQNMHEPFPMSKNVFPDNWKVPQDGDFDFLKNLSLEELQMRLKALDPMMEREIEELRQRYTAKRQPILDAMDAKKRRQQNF

[19] = target: Casein kinase II subunit alpha' (Homo sapiens) (UniProt P19784); assay: Inhibition of CSNK2A2 (unknown origin) at 1 uM by Ambit Kinomescan binding assay relative to control; values are per cent of control
[20] = test system: Tyrosine-protein kinase ABL1 (Homo sapiens), P00519 [M351T]; assay: Inhibition of phosphorylated ABL1 M351T mutant (unknown origin) at 1 uM by Ambit Kinomescan binding assay relative to control; values are per cent of control

Chain of Myosin light chain kinase, smooth muscle (Homo sapiens) (Q15746 whole entry): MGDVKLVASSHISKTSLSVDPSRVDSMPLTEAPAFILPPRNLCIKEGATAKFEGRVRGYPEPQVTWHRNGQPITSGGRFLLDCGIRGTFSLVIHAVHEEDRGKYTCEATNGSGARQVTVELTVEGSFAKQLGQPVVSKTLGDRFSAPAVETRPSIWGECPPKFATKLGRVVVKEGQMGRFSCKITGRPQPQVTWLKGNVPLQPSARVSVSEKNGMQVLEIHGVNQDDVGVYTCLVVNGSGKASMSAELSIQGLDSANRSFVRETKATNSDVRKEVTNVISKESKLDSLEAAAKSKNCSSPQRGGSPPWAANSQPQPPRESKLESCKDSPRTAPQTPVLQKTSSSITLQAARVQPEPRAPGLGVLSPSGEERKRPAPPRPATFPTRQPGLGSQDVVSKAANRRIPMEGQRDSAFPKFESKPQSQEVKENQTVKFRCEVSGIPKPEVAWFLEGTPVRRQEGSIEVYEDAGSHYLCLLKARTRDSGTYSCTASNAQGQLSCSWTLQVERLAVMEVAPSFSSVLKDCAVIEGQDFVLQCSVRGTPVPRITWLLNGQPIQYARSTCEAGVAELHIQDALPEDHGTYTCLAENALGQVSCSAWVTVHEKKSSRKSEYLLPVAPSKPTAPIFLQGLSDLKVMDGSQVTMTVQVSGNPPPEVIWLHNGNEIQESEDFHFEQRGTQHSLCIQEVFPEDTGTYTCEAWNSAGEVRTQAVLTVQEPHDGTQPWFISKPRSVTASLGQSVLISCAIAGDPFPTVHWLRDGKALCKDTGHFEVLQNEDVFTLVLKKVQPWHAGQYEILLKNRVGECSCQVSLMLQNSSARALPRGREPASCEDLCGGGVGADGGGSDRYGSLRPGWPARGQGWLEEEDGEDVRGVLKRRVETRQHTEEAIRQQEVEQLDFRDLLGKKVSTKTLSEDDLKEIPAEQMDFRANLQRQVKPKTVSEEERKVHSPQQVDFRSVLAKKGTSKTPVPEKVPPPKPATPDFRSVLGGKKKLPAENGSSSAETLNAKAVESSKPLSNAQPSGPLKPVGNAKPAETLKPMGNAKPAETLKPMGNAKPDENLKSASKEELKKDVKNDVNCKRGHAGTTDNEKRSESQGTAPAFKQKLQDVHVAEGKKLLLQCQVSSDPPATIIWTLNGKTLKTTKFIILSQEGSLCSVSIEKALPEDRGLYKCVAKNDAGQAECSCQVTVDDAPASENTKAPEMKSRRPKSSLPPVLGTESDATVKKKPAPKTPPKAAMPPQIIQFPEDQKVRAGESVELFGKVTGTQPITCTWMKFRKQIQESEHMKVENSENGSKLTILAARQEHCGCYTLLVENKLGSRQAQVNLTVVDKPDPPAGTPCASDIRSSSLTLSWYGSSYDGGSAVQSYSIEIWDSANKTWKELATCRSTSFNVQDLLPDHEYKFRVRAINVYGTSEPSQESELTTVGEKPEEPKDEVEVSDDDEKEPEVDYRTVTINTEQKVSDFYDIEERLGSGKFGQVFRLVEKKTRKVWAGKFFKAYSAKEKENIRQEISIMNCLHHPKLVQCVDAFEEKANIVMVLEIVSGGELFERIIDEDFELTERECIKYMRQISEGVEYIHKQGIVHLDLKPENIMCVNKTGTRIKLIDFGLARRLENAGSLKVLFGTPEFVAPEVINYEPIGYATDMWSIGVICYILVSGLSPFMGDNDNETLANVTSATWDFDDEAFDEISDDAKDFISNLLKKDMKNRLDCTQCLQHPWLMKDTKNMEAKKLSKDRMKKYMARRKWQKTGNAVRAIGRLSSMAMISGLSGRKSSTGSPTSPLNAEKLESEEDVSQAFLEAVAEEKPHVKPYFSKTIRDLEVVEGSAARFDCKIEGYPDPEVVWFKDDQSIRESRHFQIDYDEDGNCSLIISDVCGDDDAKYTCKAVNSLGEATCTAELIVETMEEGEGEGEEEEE
Chain of Serine/threonine-protein kinase Chk2 (Homo sapiens) (O96017 whole entry): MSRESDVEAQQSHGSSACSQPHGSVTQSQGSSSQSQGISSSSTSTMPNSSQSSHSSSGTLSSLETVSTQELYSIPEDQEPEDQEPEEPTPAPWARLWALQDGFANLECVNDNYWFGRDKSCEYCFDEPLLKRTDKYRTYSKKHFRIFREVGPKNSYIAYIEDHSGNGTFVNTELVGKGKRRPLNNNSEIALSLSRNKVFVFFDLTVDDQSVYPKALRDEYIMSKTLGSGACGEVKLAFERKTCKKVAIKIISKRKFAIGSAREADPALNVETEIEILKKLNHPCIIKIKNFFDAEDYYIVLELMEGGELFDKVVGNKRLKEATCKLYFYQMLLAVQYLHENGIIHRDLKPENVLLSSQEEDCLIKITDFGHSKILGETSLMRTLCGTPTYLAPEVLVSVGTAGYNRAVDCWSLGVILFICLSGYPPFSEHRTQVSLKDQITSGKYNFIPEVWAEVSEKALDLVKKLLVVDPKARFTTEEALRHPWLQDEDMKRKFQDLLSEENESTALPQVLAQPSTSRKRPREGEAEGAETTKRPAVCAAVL
Chain of Tyrosine-protein kinase JAK1 (Homo sapiens) (P23458 whole entry, the tested form may be a part): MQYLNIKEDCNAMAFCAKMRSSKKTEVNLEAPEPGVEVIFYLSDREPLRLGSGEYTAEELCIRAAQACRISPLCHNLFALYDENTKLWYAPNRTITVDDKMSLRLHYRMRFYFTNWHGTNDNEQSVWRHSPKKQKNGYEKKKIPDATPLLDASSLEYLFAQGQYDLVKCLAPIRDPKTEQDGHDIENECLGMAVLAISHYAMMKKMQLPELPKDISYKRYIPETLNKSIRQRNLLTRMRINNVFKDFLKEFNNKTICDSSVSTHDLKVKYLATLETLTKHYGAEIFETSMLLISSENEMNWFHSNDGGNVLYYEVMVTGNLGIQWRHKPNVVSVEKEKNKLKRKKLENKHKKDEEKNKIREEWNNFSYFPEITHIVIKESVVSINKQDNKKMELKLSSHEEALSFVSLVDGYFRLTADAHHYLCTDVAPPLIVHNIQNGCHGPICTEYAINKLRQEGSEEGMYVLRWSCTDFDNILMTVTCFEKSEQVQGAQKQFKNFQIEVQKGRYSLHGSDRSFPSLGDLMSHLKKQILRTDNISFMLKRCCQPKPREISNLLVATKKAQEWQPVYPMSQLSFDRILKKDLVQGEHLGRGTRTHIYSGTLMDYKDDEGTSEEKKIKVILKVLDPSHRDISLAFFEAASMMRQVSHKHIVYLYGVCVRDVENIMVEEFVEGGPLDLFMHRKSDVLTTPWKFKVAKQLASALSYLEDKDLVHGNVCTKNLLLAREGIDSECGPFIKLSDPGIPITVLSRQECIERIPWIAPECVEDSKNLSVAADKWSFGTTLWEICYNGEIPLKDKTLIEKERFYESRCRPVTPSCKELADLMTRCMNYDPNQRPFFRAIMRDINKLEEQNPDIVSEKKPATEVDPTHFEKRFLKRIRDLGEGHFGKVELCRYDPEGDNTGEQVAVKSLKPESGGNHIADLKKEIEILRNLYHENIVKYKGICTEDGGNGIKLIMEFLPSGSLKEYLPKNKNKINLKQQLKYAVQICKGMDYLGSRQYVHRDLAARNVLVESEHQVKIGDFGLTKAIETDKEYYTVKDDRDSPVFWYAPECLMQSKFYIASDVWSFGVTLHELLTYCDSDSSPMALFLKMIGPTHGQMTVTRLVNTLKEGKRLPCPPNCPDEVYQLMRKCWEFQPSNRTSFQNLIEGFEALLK
Chain of Epidermal growth factor receptor (Homo sapiens), P00533 [L858R,T790M] (P00533 whole entry T790M/L858R, looked up): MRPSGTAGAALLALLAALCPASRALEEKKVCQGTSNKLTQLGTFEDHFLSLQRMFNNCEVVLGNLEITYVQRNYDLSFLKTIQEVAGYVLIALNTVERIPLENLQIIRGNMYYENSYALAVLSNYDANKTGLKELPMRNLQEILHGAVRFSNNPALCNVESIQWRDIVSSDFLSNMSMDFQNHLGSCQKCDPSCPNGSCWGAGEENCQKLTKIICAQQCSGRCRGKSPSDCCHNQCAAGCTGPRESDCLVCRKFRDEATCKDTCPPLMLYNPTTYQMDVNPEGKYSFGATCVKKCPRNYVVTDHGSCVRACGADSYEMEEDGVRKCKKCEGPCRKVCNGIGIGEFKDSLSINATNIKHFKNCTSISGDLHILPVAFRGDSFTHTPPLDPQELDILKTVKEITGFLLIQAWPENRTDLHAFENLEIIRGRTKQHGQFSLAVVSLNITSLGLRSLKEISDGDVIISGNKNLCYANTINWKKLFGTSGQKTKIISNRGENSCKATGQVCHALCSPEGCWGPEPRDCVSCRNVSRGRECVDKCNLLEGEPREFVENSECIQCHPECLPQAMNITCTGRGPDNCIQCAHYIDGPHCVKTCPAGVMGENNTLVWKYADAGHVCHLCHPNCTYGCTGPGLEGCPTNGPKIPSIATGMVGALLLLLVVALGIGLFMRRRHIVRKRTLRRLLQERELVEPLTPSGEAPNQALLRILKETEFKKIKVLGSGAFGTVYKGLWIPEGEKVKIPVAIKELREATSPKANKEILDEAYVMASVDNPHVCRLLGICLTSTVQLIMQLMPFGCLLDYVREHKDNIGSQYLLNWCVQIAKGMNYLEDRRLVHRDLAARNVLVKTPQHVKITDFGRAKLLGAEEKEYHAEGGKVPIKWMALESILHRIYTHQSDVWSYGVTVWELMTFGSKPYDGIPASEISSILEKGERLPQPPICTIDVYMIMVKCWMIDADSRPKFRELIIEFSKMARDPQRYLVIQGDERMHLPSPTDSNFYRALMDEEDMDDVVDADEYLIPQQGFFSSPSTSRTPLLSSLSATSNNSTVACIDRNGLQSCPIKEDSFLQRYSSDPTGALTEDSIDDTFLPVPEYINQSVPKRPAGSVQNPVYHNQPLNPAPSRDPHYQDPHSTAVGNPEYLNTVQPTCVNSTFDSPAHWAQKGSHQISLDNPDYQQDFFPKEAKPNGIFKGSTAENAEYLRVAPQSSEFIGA

## CNc1cc(Oc2cc(C(=O)Nc3cc(N4CCN(C)CC4)cc(C(F)(F)F)c3)ccc2C)ncn1
[1]
  inhibition: 15.6%
[2]
  inhibition: 16%
[3]
  inhibition: 30.2%

## CCN1CCN(Cc2ccc(NC(=O)c3ccc(C)c(Oc4ccnc5[nH]ccc45)c3)cc2C(F)(F)F)CC1
[4]
  inhibition: 12%
[5]
  inhibition: 30.1%
[6]
  inhibition: Dose-Dependent Effect
[7]
  inhibition: -9%
[8]
  inhibition at 10 µM: 2.9%
[9]
  inhibition: inactive
[10]
  inhibition: -6.5%

## CCN1CCN(Cc2ccc(NC(=O)c3ccc(C)c(/C=C/c4cnc5[nH]ccc5c4OC)c3)cc2C(F)(F)F)CC1
[11]
  % of control: 0.45%
[12]
  residual activity: 100%
[13]
  residual activity: 0.35%
[14]
  inhibition: -4.8%
[15]
  residual activity: 77%
[16]
  residual activity: 58%
[17]
  inhibition: 100%
[18]
  inhibition: 100%
[19]
  residual activity: 77%
[20]
  % of control: 4.4%
